What was measured:
Test in all cases: Cell proliferation WST-1 assay, single dose (Example 4)
Assay type in all cases: cell-based
Details in all cases: 100 μM, 48 hours
SK-MEL-28 melanoma cells = test system: SK-MEL-28 melanoma cells
Procedure: (§1) In addition, compounds were tested in RPMI-7951 cells, which also contain mutated BRaf and are resistant to BRaf inhibitors due to the overexpression of MAP3K8 (the gene encoding COT/Tp12) that provides an alternative mechanism to indirectly or directly activate ERK proteins. […] For comparison, HeLa cervical carcinoma and Jurkat T-cell leukemia cells, which are p53 defective cancer cell lines but contain no known activating mutations in the ERK pathway, were studied. […] Cell proliferation was evaluated by water soluble tetrazolium-1 (WST-1) assay as previously described. Briefly, cells (˜5000/well) were seeded in 96 well plates, allowed to recover for 16-20 hours, and then treated with the indicated test compound for 48 hours. After incubation, WST-1 reagent was added and absorbance was read at 450 nm with background subtraction taken at 650 nm. Values were normalized to the control (DMSO only treated) cells.

A375 melanoma cells = test system: A375 melanoma cells
Procedure: as §1

[1] = test system: HeLa cervical carcinoma cells
Procedure: as §1

RPMI-7951 melanoma cells = test system: RPMI-7951 melanoma cells
Procedure: as §1

HL-60 leukemic cells = test system: HL-60 leukemic cells
Procedure: as §1

[2] = test system: Jurkat T-cell leukemia cells
Procedure: as §1

| SMILES | Cell Viability (% of Vehicle) SK-MEL-28 (SK-MEL-28 melanoma cells) | Cell Viability (% of Vehicle) A375 (A375 melanoma cells) | Cell Viability (% of Vehicle) HeLa [1] | Cell Viability (% of Vehicle) RPMI-7951 (RPMI-7951 melanoma cells) | Cell Viability (% of Vehicle) HL-60 (HL-60 leukemic cells) | Cell Viability (% of Vehicle) Jurkat [2] |
| --- | --- | --- | --- | --- | --- | --- |
| CCOc1ccc(/C=C2\SC(=O)N(CCNC(C)=O)C2=O)cc1 [Compound 25a, (Z)—N-(2-(5-(4-ethoxybenzylidene)-2,4-dioxothiazolidin-3-yl)ethyl)acetamide] | 105 ± 2 % of Vehicle | 121 ± 4 % of Vehicle | 100 ± 11 % of Vehicle | 124 ± 5 % of Vehicle | 106 ± 23 % of Vehicle | 105 ± 8 % of Vehicle |
| CCOc1ccc(/C=C2\SC(=O)N(CCNC(=O)C(F)(F)F)C2=O)cc1 [Compound 25b, (Z)—N-(2-(5-(4-ethoxybenzylidene)-2,4-dioxothiazolidin-3-yl)ethyl)-2,2,2-trifluoroacetamide] | 105 ± 2 % of Vehicle | 118 ± 4 % of Vehicle | 98 ± 11 % of Vehicle | 127 ± 3 % of Vehicle | 101 ± 23 % of Vehicle | 103 ± 6 % of Vehicle |
| CCOc1ccc(/C=C2\SC(=O)N(CCNC(=O)OC(C)(C)C)C2=O)cc1 [Compound 25c, (Z)-tert-butyl (2-(5-(4-ethoxybenzylidene)-2,4-dioxothiazolidin-3-yl)ethyl)carbamate] | 73 ± 1 % of Vehicle | 84 ± 2 % of Vehicle | 81 ± 1 % of Vehicle | 62 ± 7 % of Vehicle | 31 ± 5 % of Vehicle | 92 ± 7 % of Vehicle |
| CCOc1ccc(/C=C2\SC(=O)N(CCNC(=O)c3ccc(C#N)cc3)C2=O)cc1 [Compound 25d, (Z)-4-cyano-N-(2-(5-(4-ethoxybenzylidene)-2,4-dioxothiazolidin-3-yl)ethyl)benzamide] | 103 ± 2 % of Vehicle | 118 ± 3 % of Vehicle | 99 ± 9 % of Vehicle | 122 ± 10 % of Vehicle | 101 ± 12 % of Vehicle | 102 ± 7 % of Vehicle |
| CCOc1ccc(/C=C2\SC(=O)N(CCNC(=O)OC)C2=O)cc1 [Compound 26a, (Z)-methyl (2-(5-(4-ethoxybenzylidene)-2,4-dioxothiazolidin-3-yl)ethyl)carbamate] | 88 ± 3 % of Vehicle | 96 ± 4 % of Vehicle | 84 ± 4 % of Vehicle | 102 ± 4 % of Vehicle | 104 ± 31 % of Vehicle | 97 ± 7 % of Vehicle |
| CCOc1ccc(/C=C2\SC(=O)N(CCNC(=O)OC(C)(C)C)C2=O)cc1 [Compound 26b, (Z)-tert-butyl (2-(5-(4-ethoxybenzylidene)-2,4-dioxothiazolidin-3-yl)ethyl)carbamate] | 83 ± 5 % of Vehicle | 88 ± 3 % of Vehicle | 88 ± 5 % of Vehicle | 67 ± 4 % of Vehicle | 95 ± 21 % of Vehicle | 111 ± 9 % of Vehicle |
| CCOc1ccc(/C=C2\SC(=O)N(CCNC(=O)OCC(C)C)C2=O)cc1 [Compound 26c, (Z)-isobutyl (2-(5-(4-ethoxybenzylidene)-2,4-dioxothiazolidin-3-yl)ethyl)carbamate] | 94 ± 1 % of Vehicle | 102 ± 4 % of Vehicle | 95 ± 3 % of Vehicle | 75 ± 12 % of Vehicle | 80 ± 28 % of Vehicle | 110 ± 4 % of Vehicle |
| CCOc1ccc(/C=C2\SC(=O)N(CCNC(=O)OCc3ccccc3)C2=O)cc1 [Compound 26d, (Z)-benzyl (2-(5-(4-ethoxybenzylidene)-2,4-dioxothiazolidin-3-yl)ethyl)carbamate] | 97 ± 1 % of Vehicle | 103 ± 3 % of Vehicle | 98 ± 6 % of Vehicle | 54 ± 6 % of Vehicle | 85 ± 27 % of Vehicle | 112 ± 5 % of Vehicle |
| CCOc1ccc(/C=C2\SC(=O)N(CCNC(=O)OCC3c4ccccc4-c4ccccc43)C2=O)cc1 [Compound 26e, (Z)-(9H-fluoren-9-yl)methyl (2-(5-(4-ethoxybenzylidene)-2,4-dioxothiazolidin-3-yl)ethyl)carbamate] | 29 ± 7 % of Vehicle | 43 ± 3 % of Vehicle | 85 ± 4 % of Vehicle | 27 ± 3 % of Vehicle | 103 ± 13 % of Vehicle | 139 ± 14 % of Vehicle |
| CCOc1ccc(/C=C2\SC(=O)N(CCNS(C)(=O)=O)C2=O)cc1 [Compound 27a, (Z)—N-(2-(5-(4-ethoxybenzylidene)-2,4-dioxothiazolidin-3-yl)ethyl)methanesulfonamide] | 87 ± 2 % of Vehicle | 94 ± 2 % of Vehicle | 82 ± 1 % of Vehicle | 68 ± 3 % of Vehicle | 82 ± 44 % of Vehicle | 85 ± 3 % of Vehicle |
| CCOc1ccc(/C=C2\SC(=O)N(CCNS(=O)(=O)c3ccc(C#N)cc3)C2=O)cc1 [Compound 27b, (Z)-4-cyano-N-(2-(5-(4-ethoxybenzylidene)-2,4-dioxothiazolidin-3-yl)ethyl)benzenesulfonamide] | 95 ± 3 % of Vehicle | 109 ± 6 % of Vehicle | 90 ± 4 % of Vehicle | 99 ± 4 % of Vehicle | 101 ± 52 % of Vehicle | 103 ± 3 % of Vehicle |
| CCOc1ccc(/C=C2\SC(=O)N(CCNS(=O)(=O)c3cn(C)cn3)C2=O)cc1 [Compound 27c, (Z)—N-(2-(5-(4-ethoxybenzylidene)-2,4-dioxothiazolidin-3-yl)ethyl)-1-methyl-1H-imidazole-4-sulfonamide] | 92 ± 5 % of Vehicle | 107 ± 2 % of Vehicle | 91 ± 5 % of Vehicle | 118 ± 6 % of Vehicle | 51 ± 31 % of Vehicle | 97 ± 4 % of Vehicle |
| CCCN1C(=O)S/C(=C\c2ccc(OCC)cc2)C1=O [Compound 28d, (Z)-5-(4-ethoxybenzylidene)-3-propylthiazolidine-2,4-dione] | 101 ± 3 % of Vehicle | 119 ± 5 % of Vehicle | 96 ± 4 % of Vehicle | 116 ± 10 % of Vehicle | 80 ± 26 % of Vehicle | 101 ± 5 % of Vehicle |

Source: patent US9115122B2, “Non-ATP dependent inhibitors of extracellular signal-regulated kinase (ERK)” (UNIVERSITY OF MARYLAND, BALTIMORE, priority 2012, dated 2015)
